What follows are compounds tested against T1, human PAH with the R408W mutation (Homo sapiens, UniProt P00439, R408W) (assay: Cell Based Phenylalanine Flux Assay). Details: A375 cells expressing human PAH R408W; 24 hrs compound incubation; 13C-Tyrosine by LC-MS; average where tested multiple times; read-out: AC50.
T1 construct: expressed in transfected cells
T1 sequence (P00439 1-452 R408W): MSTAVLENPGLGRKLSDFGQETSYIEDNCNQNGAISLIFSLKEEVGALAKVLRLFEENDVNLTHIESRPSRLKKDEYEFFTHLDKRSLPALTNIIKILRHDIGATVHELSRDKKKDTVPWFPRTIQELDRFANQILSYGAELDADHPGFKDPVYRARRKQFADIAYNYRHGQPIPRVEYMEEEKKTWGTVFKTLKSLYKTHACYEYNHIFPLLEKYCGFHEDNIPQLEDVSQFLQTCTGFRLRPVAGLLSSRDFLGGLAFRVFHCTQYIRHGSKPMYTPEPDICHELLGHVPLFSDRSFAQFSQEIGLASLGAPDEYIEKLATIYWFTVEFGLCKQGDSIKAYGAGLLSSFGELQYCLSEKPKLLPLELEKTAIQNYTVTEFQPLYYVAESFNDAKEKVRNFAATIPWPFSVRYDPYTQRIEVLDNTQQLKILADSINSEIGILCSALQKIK
In the case of CC(C)c1cccn2nc([C@@H]3c4nc[nH]c4CCN3c3nnc(C(F)F)o3)cc12 [Example 2085, (S)-2-(difluoromethyl)-5-(4-(4-isopropylpyrazolo[1,5-a]pyridin-2-yl)-1,4,6,7-tetrahydro-5H-imidazo[4,5-c]pyridin-5-yl)-1,3,4-oxadiazole], the AC50 is reported as < 0.5 µM. Fc1ccc(-c2nnc(N3CCc4[nH]cnc4[C@H]3c3cc4cccc(Cl)n4n3)o2)cc1 [Example 2086, (S)-2-(4-(7-chloropyrazolo[1,5-a]pyridin-2-yl)-1,4,6,7-tetrahydro-5H-imidazo[4,5-c]pyridin-5-yl)-5-(4-fluorophenyl)-1,3,4-oxadiazole] was tested, and the AC50 was < 0.5 µM. With Fc1cccc(F)c1-c1nnc(N2CCc3[nH]cnc3[C@H]2c2cc3cccc(Cl)n3n2)o1 [Example 2089, (S)-2-(4-(7-chloropyrazolo[1,5-a]pyridin-2-yl)-1,4,6,7-tetrahydro-5H-imidazo[4,5-c]pyridin-5-yl)-5-(2,6-difluorophenyl)-1,3,4-oxadiazole] the AC50 was < 0.5 µM. Cc1cccc2cc([C@@H]3c4nc[nH]c4CCN3c3nnc(-c4c(F)cccc4F)o3)nn12 [Example 2091, (S)-2-(2,6-difluorophenyl)-5-(4-(7-methylpyrazolo[1,5-a]pyridin-2-yl)-1,4,6,7-tetrahydro-5H-imidazo[4,5-c]pyridin-5-yl)-1,3,4-oxadiazole] was tested, and the AC50 was < 0.5 µM. For Fc1cccc(F)c1-c1nnc(N2CCc3[nH]cnc3[C@@H]2c2cc3cccc(C(F)F)n3n2)o1 [Example 2092, (R)-2-(4-(7-(difluoromethyl)pyrazolo[1,5-a]pyridin-2-yl)-1,4,6,7-tetrahydro-5H-imidazo[4,5-c]pyridin-5-yl)-5-(2,6-difluorophenyl)-1,3,4-oxadiazole], the AC50 was > 5 µM. Fc1cccc(F)c1-c1nnc(N2CCc3[nH]cnc3[C@H]2c2cc3cccc(C(F)F)n3n2)o1 [Example 2093, (S)-2-(4-(7-(difluoromethyl)pyrazolo[1,5-a]pyridin-2-yl)-1,4,6,7-tetrahydro-5H-imidazo[4,5-c]pyridin-5-yl)-5-(2,6-difluorophenyl)-1,3,4-oxadiazole] was tested, and the AC50 was < 0.5 µM. FC(F)(F)c1ccc(N2CCc3[nH]cnc3[C@H]2c2cc3c(Cl)cccn3n2)nc1 [Example 2095, (S)-4-(4-chloropyrazolo[1,5-a]pyridin-2-yl)-5-(5-(trifluoromethyl)pyridin-2-yl)-4,5,6,7-tetrahydro-1H-imidazo[4,5-c]pyridine] was tested, and the AC50 was < 0.5 µM. Cc1cccc2cc([C@H]3c4nc[nH]c4CCN3c3ccc(C(F)(F)F)cn3)nn12 [Example 2096, (R)-4-(7-methylpyrazolo[1,5-a]pyridin-2-yl)-5-(5-(trifluoromethyl)pyridin-2-yl)-4,5,6,7-tetrahydro-1H-imidazo[4,5-c]pyridine] was tested, and the AC50 was > 5 µM. In the case of O=C(c1cnc(C2CC2)o1)N1CCc2[nH]cnc2[C@H]1c1cc2c(C(F)F)cccn2n1 [Example 2102, (S)-(2-cyclopropyloxazol-5-yl)(4-(4-(difluoromethyl)pyrazolo[1,5-a]pyridin-2-yl)-1,4,6,7-tetrahydro-5H-imidazo[4,5-c]pyridin-5-yl)methanone], the AC50 is reported as < 0.5 µM. With CC(C)(C)c1ncc(C(=O)N2CCc3[nH]cnc3[C@H]2c2cc3c(C(F)F)cccn3n2)o1 [Example 2104, (S)-(2-(tert-butyl)oxazol-5-yl)(4-(4-(difluoromethyl)pyrazolo[1,5-a]pyridin-2-yl)-1,4,6,7-tetrahydro-5H-imidazo[4,5-c]pyridin-5-yl)methanone] the AC50 was < 0.5 µM. In the case of CC(C)(F)c1ncc(C(=O)N2CCc3[nH]cnc3[C@H]2c2cc3c(C(F)F)cccn3n2)o1 [Example 2106, (S)-(4-(4-(difluoromethyl)pyrazolo[1,5-a]pyridin-2-yl)-1,4,6,7-tetrahydro-5H-imidazo[4,5-c]pyridin-5-yl)(2-(2-fluoropropan-2-yl)oxazol-5-yl)methanone], the AC50 is reported as < 0.5 µM. Cn1ccc(-c2ncc(C(=O)N3CCc4[nH]cnc4[C@H]3c3cc4c(C(F)(F)F)cccn4n3)o2)n1 [Example 2109, (S)-(2-(1-methyl-1H-pyrazol-3-yl)oxazol-5-yl)(4-(4-(trifluoromethyl)pyrazolo[1,5-a]pyridin-2-yl)-1,4,6,7-tetrahydro-5H-imidazo[4,5-c]pyridin-5-yl)methanone] showed an AC50 of 0.5 to 1 µM. With Cc1c(-c2ncc(C(=O)N3CCc4[nH]cnc4[C@H]3c3cc4c(C(F)(F)F)cccn4n3)o2)cnn1C [Example 2110, (S)-(2-(1,5-dimethyl-1H-pyrazol-4-yl)oxazol-5-yl)(4-(4-(trifluoromethyl)pyrazolo[1,5-a]pyridin-2-yl)-1,4,6,7-tetrahydro-5H-imidazo[4,5-c]pyridin-5-yl)methanone] the AC50 was < 0.5 µM. O=C(c1ocnc1C1CC1)N1CCc2[nH]cnc2[C@H]1c1cc2cccc(C(F)F)n2n1 [Example 2112, (S)-(4-cyclopropyloxazol-5-yl)(4-(7-(difluoromethyl)pyrazolo[1,5-a]pyridin-2-yl)-1,4,6,7-tetrahydro-5H-imidazo[4,5-c]pyridin-5-yl)methanone] was tested, and the AC50 was 0.5 to 1 µM. With O=C(c1ocnc1C1CC1)N1CCc2[nH]cnc2[C@@H]1c1cc2cccc(C(F)F)n2n1 [Example 2113, (R)-(4-cyclopropyloxazol-5-yl)(4-(7-(difluoromethyl)pyrazolo[1,5-a]pyridin-2-yl)-1,4,6,7-tetrahydro-5H-imidazo[4,5-c]pyridin-5-yl)methanone] the AC50 was > 5 µM. For Cn1cc(-c2nc(C3CC3)c(C(=O)N3CCc4[nH]cnc4[C@@H]3c3cc4c(C(F)F)cccn4n3)o2)cn1 [Example 2115, (R)-(4-cyclopropyl-2-(1-methyl-1H-pyrazol-4-yl)oxazol-5-yl)(4-(4-(difluoromethyl)pyrazolo[1,5-a]pyridin-2-yl)-1,4,6,7-tetrahydro-5H-imidazo[4,5-c]pyridin-5-yl)methanone], the AC50 was 1 to 5 µM. With O=C(c1oc(-c2ccccn2)nc1C1CC1)N1CCc2[nH]cnc2[C@H]1c1cc2c(F)cccn2n1 [Example 2118, (S)-(4-cyclopropyl-2-(pyridin-2-yl)oxazol-5-yl)(4-(4-fluoropyrazolo[1,5-a]pyridin-2-yl)-1,4,6,7-tetrahydro-5H-imidazo(4,5-c]pyridin-5-yl)methanone] the AC50 was < 0.5 µM. Compound O=C(c1oc(-c2ccccn2)nc1C1CC1)N1CCc2[nH]cnc2[C@@H]1c1cc2c(F)cccn2n1 [Example 2119, (R)-(4-cyclopropyl-2-(pyridin-2-yl)oxazol-5-yl)(4-(4-fluoropyrazolo[1,5-a]pyridin-2-yl)-1,4,6,7-tetrahydro-5H-imidazo[4,5-c]pyridin-5-yl)methanone] has an AC50 of 1 to 5 µM. For Cc1cccn2nc([C@@H]3c4nc[nH]c4CCN3C(=O)c3oc(-c4ccccn4)nc3C3CC3)cc12 [Example 2120, (S)-(4-cyclopropyl-2-(pyridin-2-yl)oxazol-5-yl)(4-(4-methylpyrazolo[1,5-a]pyridin-2-yl)-1,4,6,7-tetrahydro-5H-imidazo[4,5-c]pyridin-5-yl)methanone], the AC50 was < 0.5 µM. O=C(c1oc(-c2ccccn2)nc1C1CC1)N1CCc2[nH]cnc2[C@H]1c1cc2c(C(F)F)cccn2n1 [Example 2122, (S)-(4-cyclopropyl-2-(pyridin-2-yl)oxazol-5-yl)(4-(4-(difluoromethyl)pyrazolo[1,5-a]pyridin-2-yl)-1,4,6,7-tetrahydro-5H-imidazo[4,5-c]pyridin-5-yl)methanone] was tested, and the AC50 was < 0.5 µM. O=C(c1oc(-c2ccccn2)nc1C1CC1)N1CCc2[nH]cnc2[C@@H]1c1cc2c(C(F)F)cccn2n1 [Example 2123, (R)-(4-cyclopropyl-2-(pyridin-2-yl)oxazol-5-yl)(4-(4-(difluoromethyl)pyrazolo[1,5-a]pyridin-2-yl)-1,4,6,7-tetrahydro-5H-imidazo[4,5-c]pyridin-5-yl)methanone] gave an AC50 of 1 to 5 µM. O=C(c1oc(-c2ccccn2)nc1C1CC1)N1CCc2[nH]cnc2[C@@H]1c1cc2c(C(F)(F)F)cccn2n1 [Example 2125, (R)-(4-cyclopropyl-2-(pyridin-2-yl)oxazol-5-yl)(4-(4-(trifluoromethyl)pyrazolo[1,5-a]pyridin-2-yl)-1,4,6,7-tetrahydro-5H-imidazo[4,5-c]pyridin-5-yl)methanone] showed an AC50 of 1 to 5 µM. Cc1cccn2nc([C@H]3c4nc[nH]c4CCN3c3ccccn3)cc12 [Example 2126, (R)-4-(4-methylpyrazolo[1,5-a]pyridin-2-yl)-5-(pyridin-2-yl)-4,5,6,7-tetrahydro-1H-imidazo[4,5-c]pyridine] was tested, and the AC50 was > 5 µM. Fc1ccc(-c2nnc(N3CCc4[nH]cnc4[C@H]3c3cc4cccc(C(F)(F)F)n4n3)o2)cc1 [Example 2129, (S)-2-(4-fluorophenyl)-5-(4-(7-(trifluoromethyl)pyrazolo[1,5-a]pyridin-2-yl)-1,4,6,7-tetrahydro-5H-imidazo[4,5-c]pyridin-5-yl)-1,3,4-oxadiazole] was tested, and the AC50 was < 0.5 µM. For Fc1ccc(-c2nnc(N3CCc4[nH]cnc4[C@@H]3c3cc4cccc(C(F)F)n4n3)o2)cc1 [Example 2130, (R)-2-(4-(7-(difluoromethyl)pyrazolo[1,5-a]pyridin-2-yl)-1,4,6,7-tetrahydro-5H-imidazo[4,5-c]pyridin-5-yl)-5-(4-fluorophenyl)-1,3,4-oxadiazole], the AC50 was > 5 µM. With Fc1ccc(-c2nnc(N3CCc4[nH]cnc4[C@H]3c3cc4cccc(C(F)F)n4n3)o2)cc1 [Example 2131, (S)-2-(4-(7-(difluoromethyl)pyrazolo[1,5-a]pyridin-2-yl)-1,4,6,7-tetrahydro-5H-imidazo[4,5-c]pyridin-5-yl)-5-(4-fluorophenyl)-1,3,4-oxadiazole] the AC50 was < 0.5 µM.

— patent US20230365592A1 (Agios Pharmaceuticals, Inc., priority 2022, published 2023)
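Further: after compound treatment, cells received sepiapterin plus isotope-labelled Phenylalanine for 4 hours, then labelled Tyrosine in the medium was quantified, 10-point 2-fold dilution series run in duplicate.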
